In ChEMBL document CHEMBL3612010, “Deprotometalation-iodolysis and computed CH acidity of 1,2,3- and 1,2,4-triazoles. Application to the synthesis of resveratrol analogues” (Bioorg Med Chem, 2015):
Values after ≈ are worked out from the molar mass of the structure shown.

Tests used:
[1] = tested on: Staphylococcus aureus; experiment: Antibacterial activity against Staphylococcus aureus ATCC 25923 after 24 hrs by broth microdilution method; type: functional; conditions: ATCC 25923, 24 h
[2] = tested on: Enterococcus faecalis; experiment: Antibacterial activity against Enterococcus faecalis ATCC 29212 after 24 hrs by broth microdilution method; type: functional; conditions: ATCC 29212, 24 h
[3] = tested on: Escherichia coli; experiment: Antibacterial activity against Escherichia coli ATCC 25922 after 24 hrs by broth microdilution method; type: functional; conditions: ATCC 25922, 24 h
[4] = tested on: Pseudomonas aeruginosa; experiment: Antibacterial activity against Pseudomonas aeruginosa […] after 24 hrs by broth microdilution method; type: functional
[5] = tested on: MDA-MB-231; experiment: Antiproliferative activity against human MDA-MB-231 cells assessed as cell survival at 100 uM after 24 hrs by MTT assay relative to control; type: functional; conditions: MDA-MB-231, 24 h, read-out: Survival
[6] = tested on: Staphylococcus aureus; experiment: Antibacterial activity against Staphylococcus aureus ATCC 29213 after 24 hrs by broth microdilution method; type: functional; conditions: ATCC 29213, 24 h
[7] = tested on: MDA-MB-231; experiment: Antiproliferative activity against human MDA-MB-231 cells assessed as cell survival at 100 uM after 48 hrs by MTT assay relative to control; type: functional; conditions: MDA-MB-231, 48 h, read-out: Survival
[8] = tested on: MDA-MB-231; experiment: Antiproliferative activity human MDA-MB-231 cells assessed as cell survival after 48 hrs by MTT assay; type: functional, cell-based; conditions: MDA-MB-231, 48 h
[9] = tested on: MDA-MB-231; experiment: Antiproliferative activity against human MDA-MB-231 cells assessed as cell survival at 25 uM after 48 hrs by MTT assay relative to control; type: functional; conditions: MDA-MB-231, 48 h, read-out: Survival

Row | SMILES | MIC [1] [µg/mL] | MIC [2] [µg/mL] | MIC [3] [µg/mL] | MIC [4] [µg/mL] | viability at 100 µM [5] [%] | MIC [6] [µg/mL] | viability at 100 µM [7] [%] | IC50 [8] [µM] | viability at 25 µM [9] [%]
1 | c1ccc(-c2cnn(-c3ccccc3)n2)cc1 | 256 (≈ 1160 µM) | 128 (≈ 578 µM) | 128 (≈ 578 µM) | 128 (≈ 578 µM) | 85.5 | > 256 | – | – | –
2 | COc1ccc(OC)c(-c2cnn(-c3ccccc3)n2)c1 | 256 (≈ 910 µM) | 128 (≈ 455 µM) | 128 (≈ 455 µM) | 128 (≈ 455 µM) | 94 | 128 (≈ 455 µM) | – | – | –
3 | Oc1ccc(-c2cnn(-c3ccccc3)n2)cc1 | 128 (≈ 539 µM) | 64 (≈ 270 µM) | 128 (≈ 539 µM) | 128 (≈ 539 µM) | 102 | 64 (≈ 270 µM) | – | – | –
4 | Nc1ccc(-c2cnn(-c3ccccc3)n2)cc1 | 256 (≈ 1080 µM) | 128 (≈ 542 µM) | 128 (≈ 542 µM) | 64 (≈ 271 µM) | 66 | 256 (≈ 1080 µM) | – | – | –
5 | c1ccc(-c2cnn(-c3ccccc3-c3ccccc3)n2)cc1 | 256 (≈ 861 µM) | 128 (≈ 430 µM) | 256 (≈ 861 µM) | 128 (≈ 430 µM) | 49 | 128 (≈ 430 µM) | 23 | 52 | –
6 | COc1ccc(-c2cnn(-c3ccccc3-c3ccc(OC)cc3)n2)cc1 | 256 (≈ 716 µM) | 256 (≈ 716 µM) | 256 (≈ 716 µM) | 256 (≈ 716 µM) | 75 | 256 (≈ 716 µM) | – | – | –
7 | Oc1ccc(-c2cnn(-c3ccccc3-c3ccc(O)cc3)n2)cc1 | 128 (≈ 389 µM) | 128 (≈ 389 µM) | 128 (≈ 389 µM) | 64 (≈ 194 µM) | 54.5 | 128 (≈ 389 µM) | 11 | 40 | –
8 | Nc1ccc(-c2cnn(-c3ccccc3-c3ccc(N)cc3)n2)cc1 | 64 (≈ 195 µM) | 128 (≈ 391 µM) | 128 (≈ 391 µM) | 128 (≈ 391 µM) | 44 | 128 (≈ 391 µM) | 2.5 | 17.5 | 22
9 | Clc1cccc(-c2cnn(-c3ccccc3-c3cccc(Cl)c3)n2)c1 | 128 (≈ 349 µM) | 256 (≈ 699 µM) | 128 (≈ 349 µM) | 128 (≈ 349 µM) | 40.5 | 256 (≈ 699 µM) | 11 | 45.5 | –
10 | FC(F)(F)Oc1ccc(-n2nccn2)cc1 | 256 (≈ 1120 µM) | 128 (≈ 559 µM) | 256 (≈ 1120 µM) | 128 (≈ 559 µM) | 58.5 | 256 (≈ 1120 µM) | 24 | 67 | –
11 | CC1(C)S[C@@H]2[C@H](NC(=O)[C@H](N)c3ccc(O)cc3)C(=O)N2[C@H]1C(=O)O [AMOXICILLIN] | – | – | 4 (≈ 10.9 µM) | – | – | – | – | – | –
12 | Cc1onc(-c2ccccc2)c1C(=O)N[C@@H]1C(=O)N2[C@@H]1SC(C)(C)[C@@H]2C(=O)O [OXACILLIN] | < 1 | – | – | – | – | < 1 | – | – | –
13 | Oc1ccc(/C=C/c2cc(O)cc(O)c2)cc1 [RESVERATROL] | – | – | – | – | 93.4 | – | 60.3 | 130 | –
14 | CC1(C)S[C@@H]2[C@H](NC(=O)[C@H](C(=O)O)c3ccsc3)C(=O)N2[C@H]1C(=O)O [TICARCILLIN] | – | – | – | 8 (≈ 20.8 µM) | – | – | – | – | –
15 | CN[C@H](CC(C)C)C(=O)N[C@H]1C(=O)N[C@@H](CC(N)=O)C(=O)N[C@H]2C(=O)N[C@H]3C(=O)N[C@H](C(=O)N[C@H](C(=O)O)c4cc(O)cc(O)c4-c4cc3ccc4O)[C@H](O)c3ccc(c(Cl)c3)Oc3cc2cc(c3O[C@@H]2O[C@H](CO)[C@@H](O)[C@H](O)[C@H]2O[C@H]2C[C@](C)(N)[C@H](O)[C@H](C)O2)Oc2ccc(cc2Cl)[C@H]1O [VANCOMYCIN] | – | < 1 | – | – | – | – | – | – | –
